# Test results: patent publication US20080044484A1, “Use of polymeric nanoparticles for vaccine delivery” (THE REGENTS OF THE UNIVERSITY OF CALIFORNIA, priority 2004, published 2008)
# Key:
# [1] = tested on: peptide-loaded MDA-MB-231 cells; test: Mechanisms of peptide loading: acid stripping, pronase, Brefeldin A, 51Cr-release; assay type: cell-based, human
# Source text: To distinguish between loading of the peptides into the cytosol and simple binding of these peptides to the surface MHC molecules several approaches were used. First, β2-microglobulin was removed from the surface of peptide-loaded tumor cells by acid stripping. […] Second, pronase was used for complete enzymatic digestion of HLA molecules on the cell surface after loading in order to be able to detect the appearance of new internally formed HLA-peptide complexes on the cell surface, but not pulsing of the cells. Third, Brefeldin A (BFA), a metabolite of the fungus Eupenicillium brefeldianum, was used which specifically blocks protein transport from the ER to Golgi apparatus.
# These experiments confirmed that the antigenic peptides were introduced into the cytosol of the cells, resulting in a prolonged and more efficient antigen presentation.
# [2] = tested on: K562-A2 cells pulsed with STEAP peptide; test: Blocking of CTL lysis with antibodies BB7.2 / IVA12, LDH-release assay; assay type: cell-based, human; details: for Percent LDH released from K562-A2 pulsed +IVA12: anti-HLA class II antibody IVA12 added to peptide-pulsed targets before 4-hour LDH-release assay; for Percent LDH released from K562-A2 pulsed +BB7.2: anti-HLA-A2 antibody BB7.2 added to peptide-pulsed targets before 4-hour LDH-release assay
# Source text: As an additional control the anti-HLA class II antibody IVA12 was used. With these experiments, it was confirmed that the STEAP-specific CTL can recognize and kill target cells in a class I-restricted fashion (Table 30).
# LnCap (HLA-A2+) = test: LDH-release cytotoxicity assay of STEAP-specific CTL against prostate cancer cell line; assay type: cell-based, human; details: CTL specific for the peptide; 4-hour LDH-release assay
# Protocol: (§1) It was tested whether the STEAP-derived peptides can induce potent CTL capable of recognizing and killing prostate cancer cells in vitro. CTL lines selected for their ability to lyse peptide-pulsed target cells were used as effectors in LDH-release cytotoxicity assays against the cancer cell lines. The HLA-A2+ cancer cell line LnCAP was used, with the HLA-A2−negative cancer cell line DU145 as a control (Table 29).
# DU145 (HLA-A2−) = test: LDH-release cytotoxicity assay of STEAP-specific CTL against HLA-A2-negative control cell line; assay type: cell-based, human; details: CTL specific for the peptide; 4-hour LDH-release assay
# Protocol: as §1
# [3] = tested on: K562-A2 cells pulsed with STEAP peptide; test: In vitro induction of STEAP peptide-specific CTL, LDH-release cytotoxicity assay; details: for Percent LDH released from K562-A2 pulsed with peptide: K562-A2 pulsed with corresponding STEAP peptide 2 hours at 37° C.; for Percent LDH released from K562-A2 pulsed with peptide / Percent LDH released from K562-A2: CTL specific for the peptide, 4-hour LDH-release assay; for Induction of peptide-specific CTL: in vitro immunization of PBMC; for Percent LDH released from K562-A2: non-pulsed K562-A2 targets
# TAP (human) = TAP (human) (UniProt Q03518); test: cell-based or functional assay
# [4] = tested on: breast cancer cells MDA-MB-231; test: 51Cr-release assay, MDA-MB-231 cells loaded or pulsed with signal sequence constructs; assay type: cell-based, human; details: loading; days 1-8 after loading
# Protocol: ^51Cr-release assays were used to test to see if the low HER2/neu-expressing breast cancer cells MDA-MB-231 can be recognized more efficiently by the HER2/neu-specific CTL after loading with the fusion peptides.
# The lysis of the tumor cells by the HER2/neu-specific CTL was monitored in a conventional ^51Cr-labeling release assay. Briefly, peptide-loaded tumor cells were added to serially diluted effectors in 96-well microplates. After a 6-h incubation at 37° C., supernatants were harvested and counted in a gamma counter. Results are expressed as the percentage of specific lysis and determined as follows: [(experimental cpm−spontaneous cpm)/(maximum cpm−spontaneous cpm)]×100.
# Peptide-loaded breast cancer cells MDA-MB-231 were tested for their ability to present HER2/neu peptides at different periods of time after loading or pulsing.
# [5] = tested on: ICP47-transfected cells MCF7; test: Functional blockade of TAP by ICP47, 51Cr-release from peptide-loaded cells; assay type: cell-based, human; details: for Percent 51Cr Released From ICP47-transfected MCF7 cells loaded with the construct: CTL reactive against the corresponding HER2/neu peptide, 3 days after peptide loading, 6-hour assay
# Source text: Another aspect in these studies was to determine the mechanisms of enhancement of the antigen presentation by the fusion peptides in human tumor cell lines. Therefore, a new test system was developed utilizing the Herpes Simplex virus (HSV) protein ICP47. ICP47 is a cytoplasmic protein, which interferes with antigen presentation by physically associating with TAP within the cell and inhibiting peptide transport across the ER-membrane. By transfecting the ICP47 gene into several cancer cell lines a novel system for screening different fusion peptides for TAP-independent translocation of peptide antigens through the ER-membrane was generated.
# The expression of these antigens was detected by ^51Cr-release assays.
# [6] = tested on: breast cancer cells MDA-MB-231; test: IFNγ release by CTL (ELISA) after incubation with peptide-loaded MDA-MB-231 cells; assay type: cell-based, human; details: CTL elicited with the corresponding HER2/neu peptide, 20 h, 10^5 CTL/well
# Protocol: In interferon gamma release assays, 10^5 HER2/neu-specific CTL were co-incubated with 10^5 peptide-loaded tumor cells for 20 hours at 37° C. The concentration of human interferon gamma in co-cultured supernatants was then determined by ELISA.
# T2 cells [7] = test: IFNγ release by CTL (ELISA) after incubation with peptide-loaded T2 cells; assay type: cell-based, human; details: CTL elicited with the corresponding HER2/neu peptide, 20 h, 10^5 CTL/well
# Protocol: In interferon gamma-release assays, 10^5 HER2/neu-specific CTL were co-incubated with 10^5 peptide-loaded T2 cells for 20 hours at 37° C. The concentrations of human interferon gamma in co-cultured supernatants were then determined by ELISA.
# T2 cells [8] = test: 51Cr-release assay, T2 cells loaded or pulsed with signal sequence constructs, at periods after loading; assay type: cell-based, human; details: loading into the cytosol; days 1-8 after loading
# Source text: By “loading” of the fusion peptides into the cytosol of T2 cells, cancer cells and dendritic cells is meant use of a technology called “osmotic lysis of pinocytic vesicles.” T2 cells were exposed to hypertonic medium containing the peptide constructs. Pinocytic vesicles form in this medium, and because of their increased internal osmotic pressure, they break in the cytosol when the cells are placed in hypotonic culture medium.
# The induction of CTL in human PBMC was monitored in a conventional ^51Cr-labeling release assay. Briefly, peptide-pulsed TAP^−/HLA-A2.1^+ human T2 cells were incubated with 10 μg of HER2/neu peptides or the MART-1 control peptide for 90 min during labeling with ^51Cr. After washing, the target cells were added to serially diluted effectors in 96-well microplates. After a 6-h incubation at 37° C., supernatants were harvested and counted in a gamma counter. Results are expressed as the percentage of specific lysis and determined as follows: [(experimental cpm−spontaneous cpm)/(maximum cpm−spontaneous cpm)]×100.
# Peptide-loaded or pulsed T2 cells were tested for their ability to present HER2/neu peptides at different periods of time after loading or pulsing.
# HLA-A2.1 (human) = test: cell-based or functional assay
# TAP (human), sequence (Q03518 whole entry, chain 1 of 2): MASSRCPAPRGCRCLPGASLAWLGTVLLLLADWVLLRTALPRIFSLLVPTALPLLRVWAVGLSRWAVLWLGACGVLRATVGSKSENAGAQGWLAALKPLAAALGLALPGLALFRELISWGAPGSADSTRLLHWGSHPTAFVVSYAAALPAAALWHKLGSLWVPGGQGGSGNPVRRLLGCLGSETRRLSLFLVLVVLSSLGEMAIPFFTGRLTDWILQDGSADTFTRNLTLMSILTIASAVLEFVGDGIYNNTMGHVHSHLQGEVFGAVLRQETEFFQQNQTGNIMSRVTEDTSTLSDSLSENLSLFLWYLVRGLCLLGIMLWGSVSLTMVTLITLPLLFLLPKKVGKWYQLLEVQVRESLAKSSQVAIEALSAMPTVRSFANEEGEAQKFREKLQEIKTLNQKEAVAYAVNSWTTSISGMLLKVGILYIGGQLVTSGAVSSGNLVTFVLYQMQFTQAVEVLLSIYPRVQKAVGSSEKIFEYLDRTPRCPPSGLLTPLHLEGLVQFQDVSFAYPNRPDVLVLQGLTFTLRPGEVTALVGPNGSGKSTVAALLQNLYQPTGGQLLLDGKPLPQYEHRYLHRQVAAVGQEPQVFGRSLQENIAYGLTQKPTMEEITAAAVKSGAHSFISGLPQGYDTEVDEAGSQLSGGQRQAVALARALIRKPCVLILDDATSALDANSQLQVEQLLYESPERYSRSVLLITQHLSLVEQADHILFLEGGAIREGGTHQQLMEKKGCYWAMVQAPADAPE
# TAP (human), sequence (Q03519 whole entry, chain 2 of 2, further chain): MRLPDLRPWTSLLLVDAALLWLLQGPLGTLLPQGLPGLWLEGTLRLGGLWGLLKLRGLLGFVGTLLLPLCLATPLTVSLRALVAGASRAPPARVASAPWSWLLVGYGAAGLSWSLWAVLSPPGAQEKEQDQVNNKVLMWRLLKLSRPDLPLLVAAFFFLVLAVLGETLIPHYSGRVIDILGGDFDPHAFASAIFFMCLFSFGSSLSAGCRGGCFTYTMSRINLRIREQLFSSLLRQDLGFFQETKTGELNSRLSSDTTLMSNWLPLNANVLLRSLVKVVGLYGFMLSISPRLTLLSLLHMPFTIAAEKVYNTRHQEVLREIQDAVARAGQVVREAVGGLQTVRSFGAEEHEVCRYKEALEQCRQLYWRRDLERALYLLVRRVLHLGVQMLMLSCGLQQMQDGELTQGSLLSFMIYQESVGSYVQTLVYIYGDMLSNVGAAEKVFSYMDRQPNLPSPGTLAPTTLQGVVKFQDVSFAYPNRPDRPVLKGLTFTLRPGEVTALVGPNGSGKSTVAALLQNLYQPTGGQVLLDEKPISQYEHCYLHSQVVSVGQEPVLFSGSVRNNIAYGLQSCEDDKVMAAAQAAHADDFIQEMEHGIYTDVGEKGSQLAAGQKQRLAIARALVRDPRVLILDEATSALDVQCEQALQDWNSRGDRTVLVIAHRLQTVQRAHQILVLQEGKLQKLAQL
molecule,measurement,setting,value
C[C@H]1CCC/C=C/[C@@H]2C[C@H](O)C[C@H]2[C@H](O)/C=C/C(=O)O1 [Brefeldin A],Blocking of recognition of peptide-loaded tumor cells by HER2/neu-specific CTL,[1],specifically blocks the recognition
FLPGVIAAI [STEAP130-138 - 1F],Percent LDH released from K562-A2 pulsed +IVA12,[2],69%
same,Percent LDH released from K562-A2 pulsed +BB7.2,[2],2%
same,Percent LDH released from LnCap (HLA-A2+),LnCap (HLA-A2+),73%
same,Percent LDH released from DU145 (HLA-A2−),DU145 (HLA-A2−),−1%
same,Percent LDH released from K562-A2 pulsed with peptide,[3],75%
same,Induction of peptide-specific CTL,[3],induced potent peptide-specific CTL
same,Percent LDH released from K562-A2,[3],4%
FLWGVIAAV [STEAP130-138 - 1F/3W/9V],Percent LDH released from K562-A2 pulsed +IVA12,[2],75%
same,Percent LDH released from K562-A2 pulsed +BB7.2,[2],1%
same,Percent LDH released from LnCap (HLA-A2+),LnCap (HLA-A2+),84%
same,Percent LDH released from DU145 (HLA-A2−),DU145 (HLA-A2−),1%
same,Percent LDH released from K562-A2 pulsed with peptide,[3],74%
same,Induction of peptide-specific CTL,[3],induced potent peptide-specific CTL
same,Percent LDH released from K562-A2,[3],1%
Herpes Simplex virus (HSV) protein ICP47 (from UniProt P03170 1-88),"Percent 51Cr released from MCF7-ICP47 (CTL369-377, E:T 20:1; 29 for untransfected MCF7) (percent 51Cr released)",TAP (human),3
same,"Percent 51Cr released from MCF7-ICP47 (CTL369-377, E:T 40:1; 62 for untransfected MCF7) (percent 51Cr released)",TAP (human),3
same,"Percent 51Cr released from MCF7-ICP47 (CTL654-662, E:T 20:1; 31 for untransfected MCF7) (percent 51Cr released)",TAP (human),2
same,"Percent 51Cr released from MCF7-ICP47 (CTL654-662, E:T 40:1; 74 for untransfected MCF7) (percent 51Cr released)",TAP (human),4
LLNWAYQQV (listed as Homo sapiens) [STEAP192-200],Percent LDH released from K562-A2 pulsed +IVA12,[2],30%
same,Percent LDH released from K562-A2 pulsed +BB7.2,[2],7%
same,Percent LDH released from LnCap (HLA-A2+),LnCap (HLA-A2+),43%
same,Percent LDH released from DU145 (HLA-A2−),DU145 (HLA-A2−),18%
same,Percent LDH released from K562-A2 pulsed with peptide,[3],56%
same,Induction of peptide-specific CTL,[3],induced potent peptide-specific CTL
same,Percent LDH released from K562-A2,[3],8%
same,Induction of peptide-specific CTL in patients with prostate cancer,[3]; number of patients,three out of three
LLSFFFAVL (listed as Homo sapiens) [STEAP166-174],Percent LDH released from K562-A2 pulsed +IVA12,[2],47%
same,Percent LDH released from K562-A2 pulsed +BB7.2,[2],11%
same,Percent LDH released from LnCap (HLA-A2+),LnCap (HLA-A2+),65%
same,Percent LDH released from DU145 (HLA-A2−),DU145 (HLA-A2−),4%
same,Percent LDH released from K562-A2 pulsed with peptide,[3],43%
same,Induction of peptide-specific CTL,[3],induced potent peptide-specific CTL
same,Percent LDH released from K562-A2,[3],3%
M A IISAVVGIL A A A A A G (MAIISAVVGILAAAAAG) [HER654-662-IN-AF],Recognition by CTL of MDA-MB-231 cells loaded with the peptide (51Cr-release),[4],effective
same,Restoration of antigen presentation in ICP47-transfected breast cancer cells,[5]; 51Cr-release,able to restore the antigen presentation
same,Percent 51Cr Released From ICP47-transfected MCF7 cells loaded with the construct,[5]; E:T 20:1,22%
same,Percent 51Cr Released From ICP47-transfected MCF7 cells loaded with the construct,[5]; E:T 40:1,66%
same,"Release of IFNγ by CTL, MDA-MB-231 cells loaded with the peptide",[6]; Day 1 after peptide loading,3321 pg/mL
same,"Release of IFNγ by CTL, MDA-MB-231 cells loaded with the peptide",[6]; Day 3 after peptide loading,2994 pg/mL
same,"Release of IFNγ by CTL, MDA-MB-231 cells loaded with the peptide",[6]; Day 5 after peptide loading,1933 pg/mL
same,"Release of IFNγ by CTL, MDA-MB-231 cells loaded with the peptide",[6]; Day 8 after peptide loading,899 pg/mL
same,"Release of IFNγ by CTL, T2 cells loaded with the peptide",T2 cells [7]; Day 1 after peptide loading,3321 pg/mL
same,"Release of IFNγ by CTL, T2 cells loaded with the peptide",T2 cells [7]; Day 3 after peptide loading,2981 pg/mL
same,"Release of IFNγ by CTL, T2 cells loaded with the peptide",T2 cells [7]; Day 5 after peptide loading,1892 pg/mL
same,"Release of IFNγ by CTL, T2 cells loaded with the peptide",T2 cells [7]; Day 8 after peptide loading,881 pg/mL
same,Recognition by CTL of T2 cells loaded with the peptide (51Cr-release),T2 cells [8],effective
MA HLYQGCQVV AAAAAG (MAHLYQGCQVVAAAAAG) [HER48-56-IN-AF],"Release of IFNγ by CTL, T2 cells loaded with the peptide",T2 cells [7]; Day 1 after peptide loading,3488 pg/mL
same,"Release of IFNγ by CTL, T2 cells loaded with the peptide",T2 cells [7]; Day 3 after peptide loading,1229 pg/mL
same,"Release of IFNγ by CTL, T2 cells loaded with the peptide",T2 cells [7]; Day 5 after peptide loading,1010 pg/mL
same,"Release of IFNγ by CTL, T2 cells loaded with the peptide",T2 cells [7]; Day 8 after peptide loading,718 pg/mL
same,Recognition by CTL of T2 cells loaded with the peptide (51Cr-release),T2 cells [8],effective
YLPGVIAAI (listed as Homo sapiens) [STEAP130-138],Percent LDH released from K562-A2 pulsed +IVA12,[2],37%
same,Percent LDH released from K562-A2 pulsed +BB7.2,[2],2%
same,Percent LDH released from LnCap (HLA-A2+),LnCap (HLA-A2+),53%
same,Percent LDH released from DU145 (HLA-A2−),DU145 (HLA-A2−),−1%
same,Percent LDH released from K562-A2 pulsed with peptide,[3],63%
same,Induction of peptide-specific CTL,[3],induced potent peptide-specific CTL
same,Percent LDH released from K562-A2,[3],1%
YLPGVIAAV [STEAP130-138 - 9V],Percent LDH released from K562-A2 pulsed +IVA12,[2],47%
same,Percent LDH released from K562-A2 pulsed +BB7.2,[2],1%
same,Percent LDH released from LnCap (HLA-A2+),LnCap (HLA-A2+),68%
same,Percent LDH released from DU145 (HLA-A2−),DU145 (HLA-A2−),−2%
same,Percent LDH released from K562-A2 pulsed with peptide,[3],53%
same,Induction of peptide-specific CTL,[3],induced potent peptide-specific CTL
same,Percent LDH released from K562-A2,[3],1%
YLWGVIAAI [STEAP130-138 - 3W],Percent LDH released from K562-A2 pulsed +IVA12,[2],64%
same,Percent LDH released from K562-A2 pulsed +BB7.2,[2],5%
same,Percent LDH released from LnCap (HLA-A2+),LnCap (HLA-A2+),69%
same,Percent LDH released from DU145 (HLA-A2−),DU145 (HLA-A2−),−2%
same,Percent LDH released from K562-A2 pulsed with peptide,[3],63%
same,Induction of peptide-specific CTL,[3],induced potent peptide-specific CTL
same,Percent LDH released from K562-A2,[3],4%
anti-HLA-A2 antibody BB7.2,Percent LDH released from peptide-pulsed K562-A2 +BB7.2 (CTL specific for STEAP130-138 -1F/3W/9V; 74 without antibody) (percent LDH released),HLA-A2.1 (human),1
same,Percent LDH released from peptide-pulsed K562-A2 +BB7.2 (CTL specific for STEAP130-138 -1F; 75 without antibody) (percent LDH released),HLA-A2.1 (human),2
same,Percent LDH released from peptide-pulsed K562-A2 +BB7.2 (CTL specific for STEAP130-138 -3W; 63 without antibody) (percent LDH released),HLA-A2.1 (human),5
same,Percent LDH released from peptide-pulsed K562-A2 +BB7.2 (CTL specific for STEAP130-138 -9V; 53 without antibody) (percent LDH released),HLA-A2.1 (human),1
same,Percent LDH released from peptide-pulsed K562-A2 +BB7.2 (CTL specific for STEAP130-138; 63 without antibody) (percent LDH released),HLA-A2.1 (human),2
same,Percent LDH released from peptide-pulsed K562-A2 +BB7.2 (CTL specific for STEAP192-200; 56 without antibody) (percent LDH released),HLA-A2.1 (human),7
